In PMC11249953, “c-KIT inhibitors reduce pathology and improve behavior in the Tg(SwDI) model of Alzheimer’s disease” (Life Science Alliance, 2024):
Where “and” joins values, the source holds several entries; their conditions need not be identical. Identical values can stand only once.

How the values were obtained:
[1] = target: T1, MEK5 (Homo sapiens, UniProt Q13163); assay: KINOMEscan competition binding, MEK5; details: 10 µM compound; for remaining binding at 10 µM: lower = stronger binding, read-out: MEK5 %Ctrl @ 10000nM (POC)
T1 construct: DNA label for qPCR read-out (T7 phage fusion or DNA tag); purchased Eurofins DiscoverX Corporation; host or cells: T7 phage in E. coli (BL21-derived) or HEK-293
T1 sequence (Q13163 1-448): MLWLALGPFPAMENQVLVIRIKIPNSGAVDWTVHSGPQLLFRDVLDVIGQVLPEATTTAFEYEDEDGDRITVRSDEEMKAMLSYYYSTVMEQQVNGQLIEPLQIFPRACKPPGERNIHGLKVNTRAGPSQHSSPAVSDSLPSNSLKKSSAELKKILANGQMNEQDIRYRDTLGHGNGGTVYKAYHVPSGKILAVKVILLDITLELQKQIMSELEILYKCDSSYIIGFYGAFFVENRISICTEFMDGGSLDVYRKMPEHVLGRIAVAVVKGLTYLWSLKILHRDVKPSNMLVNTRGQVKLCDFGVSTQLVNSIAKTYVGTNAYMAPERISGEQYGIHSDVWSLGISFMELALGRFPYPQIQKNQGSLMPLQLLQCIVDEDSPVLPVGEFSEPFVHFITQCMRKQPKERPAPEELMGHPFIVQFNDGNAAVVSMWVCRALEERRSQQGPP
Experimental: The KINOMEscan screening platform (Eurofins DiscoverX Corporation) was performed using active site-directed competition binding assay to quantitatively measure interactions between BK40143 and BK40197 and more than 450 human kinases and disease relevant mutant variants. […] Screening “hits” are identified by measuring the amount of kinase captured in test (BK40143 and BK40197) versus control samples by using a quantitative and ultra-sensitive qRT-PCR method that detects the associated DNA label. BK40143 and BK40197 were screened at 10 µM concentration, and results for primary screen binding interactions were reported as “% Ctrl” (POC), where lower numbers indicate stronger hits and calculated as follows: [test compound signal−positive control signal/negative control signal−positive control signal]×100
negative control = DMSO (100% Ctrl)
positive control = control compound (0% Ctrl)
Based on screening data from of profiled compounds, a proportional relationship between primary screening results and corresponding compound/target affinities can be described as binding constants (Kd values) for the indicated ranges of POC values with tighter binding (higher affinity) interactions associated with lower POC values and weaker binding (lower affinity) associated with higher POC values. Briefly, kinase-tagged T7 phage strains were grown in parallel in 24-well blocks in an E. coli host derived from the BL21 strain. E. coli were grown to log-phase and infected with T7 phage from a frozen stock (multiplicity of infection = 0.4) and incubated with shaking at 32°C until lysis (90–150 min). The lysates were centrifuged (6,000g) and filtered (0.2 μm) to remove cell debris. The remaining kinases were produced in HEK-293 cells and subsequently tagged with DNA for qRT-PCR detection. Streptavidin-coated magnetic beads were treated with biotinylated small molecule ligands for 30 min at RT to generate affinity resins for kinase assays. The liganded beads were blocked with excess biotin and washed with blocking buffer (1% BSA, 0.05% Tween 20, 1 mM DTT; SeaBlock [Pierce]) to remove unbound ligand and to reduce non-specific phage binding. Binding reactions were assembled by combining kinases, liganded affinity beads, and test compounds in 1x binding buffer (20% 0.17x PBS, 0.05% Tween 20, 6 mM DTT; SeaBlock). Test compounds were prepared as 100x stocks in 100% DMSO and directly diluted into the assay. All reactions were performed in polypropylene 384-well plates in a final volume of 0.02 ml. The assay plates were incubated at RT with shaking for 1 h and the affinity beads were washed with wash buffer (1x PBS, 0.05% Tween 20). […] The kinase concentration in the eluates was measured by qRT-PCR.

[2] = system: TgAPP mice; assay: Novel object recognition, TgAPP mice; type: in vivo, mouse; details: BK40143 5 mg/kg, BK40197 45 mg/kg IP, 6 wk, vs DMSO
Experimental: (§1) Novel object recognition was carried out using a 50 × 50 cm arena with clear walls covered by brown construction paper. Mice were habituated to the room for 30 min each day, before being allowed to freely explore the arena for 5 min two times, for 3 d. On the 4th d, two identical objects were placed in the arena in opposite adjacent corners, 10 cm from the corner of the arena. Mice were placed along the wall opposite from the objects and allowed to freely explore for 10 min. Approach behavior (extending nose toward the object) toward both objects was recorded manually using handheld stop watches and compared with ensure there was no preference for either neutral object. For the probe trial, one object was removed and replaced with a novel object, and mice were again allowed to freely explore for 10 min, with approach time towards the novel and familiar objects recorded. Trials in which the mice explored for less than 1 s were excluded. Discrimination index was calculated by dividing time spent exploring the novel object by total time exploring both objects and was compared for treated versus control animals.

[3] = system: mice; assay: Novel object recognition, source data sheet NOR (mouse line not given); type: in vivo; set-up: key to Probe: DI (Discrimination Index: Novel / Total) / Familiarization: DI / Familiarization: DI, group mean / Familiarization DI: DI = novel-object exploration time / total exploration time of both objects; Familiarization: Total / Familiarization B / Familiarization Total: unit not given here; details: for Probe DI: Discrimination Index: Novel / Total; for Probe DI / Familiarization Total / Familiarization B / Familiarization DI / Probe Familiar / Probe Total / Probe Novel / % Difference: one value per mouse; for Familiarization Total / Familiarization B / Familiarization DI / Probe Familiar / Probe Total / Probe Novel: novel object recognition; for Familiarization Total: A + B; for Familiarization B: object B; for Probe Familiar: familiar object; for Probe Total: novel + familiar; for Probe Novel: novel object; for % Difference: probe DI minus familiarization DI, Exclude trials where mice explored <1s; for Familiarization: A (exploration of object A) / Familiarization: B (exploration of object B) / Familiarization: DI / Familiarization: Total / Probe: DI (Discrimination Index: Novel / Total) / Probe: Familiar / Probe: Novel / Probe: Total: individual mice
Experimental: as §1

Cc1cccc(-c2cc3nccc(N4CCOCC4)c3s2)c1 [BK40197] was tested, and the inhibition at 10 µM [1] was 93.1%, the remaining binding at 10 µM [1] was 6.9% and the “novel object recognition: time exploring the novel object” value [2] was “spent significantly greater amounts of time exploring the novel object”. The “Probe DI” value ([3]; listed as 197) was 0.7189 and 0.4276 and 0.6036 and 0 and 0.3497 and 0.7629 and 0.5645, the “Familiarization Total” value ([3]; listed as 197) was 6.07 and 3.17 and 0.72 and 1.59 and 2.09 and 99.73 and 4.98 and 1.54 and 46.43 and the “Familiarization B” value ([3]; listed as 197) was 4.54 and 2.11 and 0 and 0.44 and 2.09 and 67.09 and 3.73 and 0.91 and 31.96. The “Familiarization DI” value ([3]; listed as 197) was 0.2521 and 0.3344 and 1 and 0.7233 and 0 and 0.3273 and 0.251 and 0.4091 and 0.3117, the “Probe Familiar” value ([3]; listed as 197) was 3.8 and 3.44 and 1.78 and 0.31 and 0 and 59.03 and 0.92 and 1.62 and the “Probe Total” value ([3]; listed as 197) was 13.52 and 6.01 and 4.49 and 0.31 and 0 and 90.78 and 3.88 and 3.72. The “Probe Novel” value ([3]; listed as 197) was 9.72 and 2.57 and 2.71 and 0 and 31.75 and 2.96 and 2.1 and the “% Difference” value ([3]; listed as 197) was 46.6876% and 9.324% and -39.6437% and 2.2463% and 51.1883% and 15.5425%.

Cc1cccc(-c2cc3nccc(Nc4ccccc4)c3s2)c1 [BK40143] was tested, and the inhibition at 10 µM [1] was 99.7%, the remaining binding at 10 µM [1] was 0.35% and the “novel object recognition: time exploring the novel object” value [2] was “spent significantly greater amounts of time exploring the novel object”. For the same compound, the “Familiarization: DI, group mean” value ([3]; 2.5mg/kg) was 0.4194, the “Probe: DI, group mean” value ([3]; 2.5mg/kg) was 0.6322 and the “Familiarization: A (exploration of object A)” value ([3]; 2.5mg/kg, listed as 143) was 79.74 and 23.94 and 6.51 and 4.1 and 1.73 and 91.39 and 3.94. For the same compound, the “Familiarization: B (exploration of object B)” value ([3]; 2.5mg/kg, listed as 143) was 36.19 and 20.07 and 19.62 and 23.82 and 2.46 and 58.89 and 9.8, the “Familiarization: DI” value ([3]; 2.5mg/kg, listed as 143) was 0.6878 and 0.544 and 0.2491 and 0.1468 and 0.4129 and 0.6081 and 0.2868 and the “Familiarization: Total” value ([3]; 2.5mg/kg, listed as 143) was 115.93 and 44.01 and 26.13 and 27.92 and 4.19 and 150.28 and 13.74. The “Probe: DI (Discrimination Index: Novel / Total)” value ([3]; 2.5mg/kg, listed as 143) was 0.6527 and 0.5219 and 0.7012 and 0.6866 and 0 and 0.6684 and 0.5624, the “Probe: Familiar” value ([3]; 2.5mg/kg, listed as 143) was 12.56 and 26.64 and 26.04 and 10.96 and 0.71 and 19.02 and 21.52 and the “Probe: Novel” value ([3]; 2.5mg/kg, listed as 143) was 23.6 and 29.08 and 61.12 and 24.01 and 0 and 38.34 and 27.66. For the same compound, the “Probe: Total” value ([3]; 2.5mg/kg, listed as 143) was 36.16 and 55.72 and 87.16 and 34.97 and 0.71 and 57.36 and 49.18, the “Familiarization: DI, group mean” value ([3]; 5.0mg/kg) was 0.4517 and the “Probe: DI, group mean” value ([3]; 5.0mg/kg) was 0.5431. The “Familiarization: A (exploration of object A)” value ([3]; 5.0mg/kg, listed as 143) was 6.57 and 57.74 and 55.12 and 0 and 31.22 and 2.26 and 24.68 and 3.81, the “Familiarization: B (exploration of object B)” value ([3]; 5.0mg/kg, listed as 143) was 6.09 and 45.42 and 59.49 and 0 and 28.62 and 34.43 and 1.4 and 35.06 and 3.14 and the “Familiarization: DI” value ([3]; 5.0mg/kg, listed as 143) was 0.519 and 0.5597 and 0.4809 and 0 and 0.4756 and 0.6175 and 0.4131 and 0.5482. The “Familiarization: Total” value ([3]; 5.0mg/kg, listed as 143) was 12.66 and 103.16 and 114.61 and 0 and 28.62 and 65.65 and 3.66 and 59.74 and 6.95, the “Probe: DI (Discrimination Index: Novel / Total)” value ([3]; 5.0mg/kg, listed as 143) was 0.5491 and 0.4762 and 0.6019 and 0.4523 and 0.4543 and 0.6392 and 0.6671 and 0.5538 and 0.5229 and 0.5147 and the “Probe: Familiar” value ([3]; 5.0mg/kg, listed as 143) was 31.58 and 54.9 and 31.99 and 22.78 and 6.63 and 10.02 and 2.44 and 2.49 and 12.81 and 27.34. The “Probe: Novel” value ([3]; 5.0mg/kg, listed as 143) was 38.46 and 49.91 and 48.36 and 18.81 and 5.52 and 17.75 and 4.89 and 3.09 and 14.04 and 29, the “Probe: Total” value ([3]; 5.0mg/kg, listed as 143) was 70.04 and 104.81 and 80.35 and 41.59 and 12.15 and 27.77 and 7.33 and 5.58 and 26.85 and 56.34 and the “Probe DI” value ([3]; listed as 143) was 0.8287 and 0.6842 and 0.7687 and 1 and 0 and 0.615 and 0.4318 and 0.5747 and 0.1499 and 0.6797. The “Familiarization Total” value ([3]; listed as 143) was 4.02 and 1.72 and 5.39 and 2.97 and 7.23 and 16.69 and 3.49 and 11.99 and 18.68 and 5.99, the “Familiarization B” value ([3]; listed as 143) was 4.02 and 0.91 and 0.51 and 1.41 and 5.2 and 7.29 and 2.89 and 7.23 and 11.16 and 3.62 and the “Familiarization DI” value ([3]; listed as 143) was 0 and 0.4709 and 0.9054 and 0.5253 and 0.2808 and 0.5632 and 0.1719 and 0.397 and 0.4026 and 0.3957. For the same compound, the “Probe Familiar” value ([3]; listed as 143) was 0.62 and 0.78 and 0.31 and 0 and 0.83 and 2.41 and 0.5 and 20.09 and 39.82 and 2.04, the “Probe Total” value ([3]; listed as 143) was 3.62 and 2.47 and 1.34 and 5.82 and 0.83 and 6.26 and 0.88 and 47.24 and 46.84 and 6.37 and the “Probe Novel” value ([3]; listed as 143) was 3 and 1.69 and 1.03 and 5.82 and 0 and 3.85 and 0.38 and 27.15 and 7.02 and 4.33. The “% Difference” value ([3]; listed as 143) was 82.8729% and 21.328% and -13.6724% and 47.4747% and 5.18% and 17.7727% and 28.4089%.
